The structures appear in SMILES notation. Structures can show the parent of a compound that is named as a salt.

One experiment addresses T1, Rat 5-HT1A (Rattus norvegicus, UniProt P19327).
T1 construct: A rat hippocampus sample was homogenized in a 50 mM Tris-HCl buffer; from tissue; host or cells: rat hippocampus (membrane fraction)
T1 sequence (P19327 1-422): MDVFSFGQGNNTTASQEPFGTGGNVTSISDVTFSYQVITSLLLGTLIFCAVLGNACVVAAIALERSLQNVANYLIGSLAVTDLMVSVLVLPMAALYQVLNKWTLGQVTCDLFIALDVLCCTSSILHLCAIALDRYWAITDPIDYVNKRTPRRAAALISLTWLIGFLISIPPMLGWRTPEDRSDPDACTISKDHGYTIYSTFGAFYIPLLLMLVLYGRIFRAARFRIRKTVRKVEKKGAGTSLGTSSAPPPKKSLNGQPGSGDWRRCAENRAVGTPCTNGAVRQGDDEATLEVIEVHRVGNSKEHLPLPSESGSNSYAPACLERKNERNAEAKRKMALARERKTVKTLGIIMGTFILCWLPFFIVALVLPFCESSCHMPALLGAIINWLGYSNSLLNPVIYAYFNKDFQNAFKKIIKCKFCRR
Put plainly: Affinity for rat serotonin1A receptor ([3H]MPPF binding to rat hippocampal membrane fraction). The conditions noted are these: pH 7.4, 25° C., 60 min, non-specific binding with 10 μM serotonin, Ki from IC50, tracer concentration and Kd (Scatchard). As for the experimental part:
Test Regarding Affinity for Rat Serotonin1A Receptor
An MPPF rat hippocampal membrane fraction selectively binding to the 5-HT1A receptor was used to test affinity of a test substance for the rat 5-HT1A receptor.
A rat hippocampus sample was homogenized in a 50 mM Tris-HCl buffer (pH 7.4; hereinafter referred to as “buffer A”) that had been cooled with ice. The suspension was centrifuged at 50,000×g for 20 minutes. The obtained sediment was suspended in buffer solution A, and the resultant solution was then centrifuged at 50,000×g for 20 minutes. The obtained sediment was suspended in buffer solution to obtain a rat hippocampus membrane fraction.
The mixture used for incubation contained an appropriate amount of membrane fraction, a test substance at a desired concentration, [^3H]MPPF, dimethyl sulfoxide and buffer A. The reaction was initiated through the addition of the membrane fraction, and the mixture was incubated at 25° C. for 60 minutes. After incubation, the mixture was subjected to vacuum filtration by passing through a glass filter using a Cell Harvester. The filter was washed 3 times with buffer solution A, and then radioactivity binding to the receptor was measured with a liquid scintillation counter. Non-specific binding was defined as binding detected in the presence of 10 μM serotonin. […]

In a further experiment the test system is urinary reflex. Put plainly: Inhibitory action against the increased urinary reflex action due to destruction of the superior colliculus in rats (cystometrogram). Particulars: 1 mg/kg, i.v.; superior colliculus-lesioned female Sprague-Dawley rats; maximal reaction (Emax). The format is in vivo, rat (Sprague-Dawley. The text has this:
In the present test, Sprague-Dawley female rats (200-350 g) were used. The rats underwent a median incision of the abdomen under anesthesia. A hole with a minor diameter was made on the apex of the bladder, and a catheter used for measurement of an intravesical pressure was placed therein. A catheter used for administration of a test substance was placed in the femoral vein. These catheters were fixed at the occipital region of the rat through the subcutis. One day later, the urinary reflex of the rats was measured with a cystometrogram. Thereafter, the rats were fixed on a brain stereotaxis apparatus under anesthesia, and then subjected to a median incision of the scalp. […] Electric current was then applied (65° C., 4 minutes) so as to damage the brain tissue. After completion of the operation, when the rat awoke from the anesthesia, cystometrogram was conducted again to confirm the increased state of urinary reflex. A test substance was administered through the catheter placed in the femoral vein, and the action of the test substance on urinary reflex was evaluated. In addition, the effects of several test substances were compared using the maximal reaction (Emax).

The compound `CNC(=O)c1ccc2ccn(C3CCN(CCc4c(OC)ccc5c4OC(C)(C)CC5=O)CC3)c2c1` [Form D crystal form of fumarate, 1-{1-[2-(7-methoxy-2,2-dimethyl-4-oxochroman-8-yl)ethyl]piperidin-4-yl}-N-methyl-1H-indole-6-carboxamide fumarate (form D crystal)] returned a Ki on Rat 5-HT1A of 0.045 nM. The “Urinary interval Emax” value in the experiment on urinary reflex stood at 75%.

Broadly, the Ki is the dissociation constant of the complex between target and ligand, obtained from inhibition or displacement. Lower therefore signals higher affinity.

The record behind these values is patent US20080227815A1, “Crystal of Indole Derivative Having Piperidine Ring and Process for Production Thereof” (priority 2005, published 2008).
